This note sets out measurements from ChEMBL document CHEMBL1149029, “New cycloartanol sulfates from the alga Tydemania expeditionis: inhibitors of the protein tyrosine kinase pp60v-src” (J Nat Prod, 1994).

This test is described as follows: Inhibition of Rous sarcoma virus pp60v-src.

Each structure is given as a SMILES string.

`CC(C)CC(=O)C[C@@H](C)[C@H]1CC[C@@]2(C)[C@@H]3CC[C@H]4[C@](C)(COS(=O)(=O)O)[C@@H](OS(=O)(=O)O)CC[C@@]45C[C@@]35CC[C@]12C`: 32 µM corresponded to half-maximal inhibition (IC50).

As for `CC(C)CC(O)C[C@@H](C)[C@H]1CC[C@@]2(C)[C@@H]3CC[C@H]4[C@](C)(COS(=O)(=O)O)[C@@H](OS(=O)(=O)O)CC[C@@]45C[C@@]35CC[C@]12C` (stereo partly drawn), the IC50 was 100 µM. The same measure for `CC(C)=CC(=O)C[C@@H](C)[C@H]1CC[C@@]2(C)[C@@H]3CC[C@H]4[C@](C)(COS(=O)(=O)O)[C@@H](OS(=O)(=O)O)CC[C@@]45C[C@@]35CC[C@]12C`: 39 µM.

The term IC50 denotes the point on the concentration scale where inhibition reaches its midpoint. Read a high IC50 as weaker potency in that assay.
